Values quoted from earlier work as cited in patent publication US20090196923A1, “CONTROLLED RELEASE FORMULATION COMPRISING ANTI-EPILEPTIC DRUGS” (priority 2006, published 2009).

- water solubility: poor water solubility
SMILES: NC(=O)N1c2ccccc2CC(=O)c2ccccc21 [Oxcarbazepine, 10, 11-dihydro-10-oxocarbamazepine]
